Assay results reported in patent publication US7214507B2, “Plant enzymes for bioconversion” (Plant Research International B.V., priority 2001, dated 2007).
“Also recorded” adds a separate entry of the source.

Legend:
[1] = tested on: (+)-germacrene A hydroxylase; assay: Conversion of sesquiterpenes by a microsomal pellet of chicory in the presence of NADPH; conditions: for Conversion by the (+)-germacrene A hydroxylase containing microsomal pellet (in words): NADPH, microsomal pellet from chicory roots
Description: During the whole procedure the plant material was kept on ice as much as possible. After 5 times several seconds of mixing, the slurry was transferred to the cheesecloth with an additional 10 ml of extraction buffer. The cheesecloth was squeezed out and the filtrate was centrifuged (Sigma 2K15) for 20 minutes at 20,000 g and 4° C. The supernatant was poured over a funnel filled with glass wool. […] The resulting microsomal pellets (about 6) were stored under argon at −80° C.
Before incubation, 10 pellets were pottered in 30 mL of assay buffer consisting of 25 mM Tris pH 7.5), 2 mM DTT, 1 mM ascorbic acid, 5 μM FAD, 5 μM FMN and 10% (v/v) glycerol. The enzyme suspension was divided in 1 mL aliquots and incubated with 5 μL substrate solution in the presence of a 1 mM NADPH-regenerating system that consisted of 1 mM NADPH, 5 mM glucose-6-phosphate, and 1.2 IU glucose-6-phosphate dehydrogenase (all from Sigma). The initial concentration of substrate in each assay was 45 μM and all were done in duplicate. […] After 60 minutes the incubations were stopped by storing them at −20° C. in a freezer.
The enzyme assays were extracted 2 times with 1 mL 20% (v/v) ether in pentane, after the addition of 5 μM cis-nerolidol (Fluka). The organic phase was filtered through a glasswool-plugged (dimethyl chlorosilane-treated, Chrompack) Pasteur pipette that contained 0.4 gram of silica and a little anhydrous MgSO4. The pipette was rinsed with 1.5 mL ether and the extract was concentrated to approximately 50 μL under a stream of nitrogen.

[2] = tested on: leucodin biosynthesis; assay: Formation of leucodin from (+)-costunolide by 20,000 g chicory root supernatant; assay type: biochemical, Cichorium intybus L.
Description: (§1) Incubations were also done with boiled desalted supernatant and in the absence of NADPH. The experiments were repeated with elema-1,3,11(13)-trien-12-oic acid (FIG. 2, 9) and a mixture of α- and γ-costic acid (14) that might serve as substrate analogues for the germacrene acid (4). After 1 h of incubation at 30° C., the reactions were stored in the freezer.
(§2) The organic phase was filtered through a glass-wool plugged (dimethyl chlorosilane-treated glasswool; Chrompack) Pasteur pipette that contained 0.45 g of silica and a little anhydrous MgSO4. […] Samples of 2 μL were analysed by GC-MS using an injection port temperature of 320° C. to provoke Cope rearrangement of (+)-costunolide (5).
(§3) Incubations as described for the germacrene acid were also done with (+)-costunolide (30 μM) to test whether any further enzymatic conversion of this compound would occur during the incubation of germacrene acid. Parthenolide (20 μM) (FIG. 9, 17) was incubated as well since it might be an intermediate in the formation of guaianolides. […] The effect of established cytochrome P450 inhibitors and CO on the conversion of (+)-costunolide was studied, just as the effect of various pyridine nucleotide cofactors and an argon atmosphere.

[3] = tested on: (+)-costunolide reductase activity; assay: Formation of 11(S),13-dihydrocostunolide from (+)-costunolide by 20,000 g chicory root supernatant; assay type: biochemical, Cichorium intybus L.; conditions: for Reduction of the C11–C13 exocyclic double bond (in words): 20 μM substrate, NADPH
Description: as §1, §2, §3

[4] = molecular target: T1, (+)-costunolide synthase (Cichorium intybus, UniProt G3GBK0); assay: (+)-Costunolide synthase activity, 20,000 g chicory root supernatant with germacrene acid; assay type: biochemical, Cichorium intybus L.; conditions: for Percentage Enzyme Activity ± SD, (+)-costunolide synthase: addition at 1 mM, 100% = sum of dehydrosaussurea lactone, saussurea lactone and leucodin peaks with 1 mM NADPH; for Conversion of substrate analogues by the (+)-costunolide synthase (in words): 20,000 g supernatant, NADPH
T1 construct: A cell free extract of chicory roots was prepared from the frozen material; from tissue; host or cells: chicory roots, desalted 20,000 g supernatant
T1 sequence (G3GBK0 1-494): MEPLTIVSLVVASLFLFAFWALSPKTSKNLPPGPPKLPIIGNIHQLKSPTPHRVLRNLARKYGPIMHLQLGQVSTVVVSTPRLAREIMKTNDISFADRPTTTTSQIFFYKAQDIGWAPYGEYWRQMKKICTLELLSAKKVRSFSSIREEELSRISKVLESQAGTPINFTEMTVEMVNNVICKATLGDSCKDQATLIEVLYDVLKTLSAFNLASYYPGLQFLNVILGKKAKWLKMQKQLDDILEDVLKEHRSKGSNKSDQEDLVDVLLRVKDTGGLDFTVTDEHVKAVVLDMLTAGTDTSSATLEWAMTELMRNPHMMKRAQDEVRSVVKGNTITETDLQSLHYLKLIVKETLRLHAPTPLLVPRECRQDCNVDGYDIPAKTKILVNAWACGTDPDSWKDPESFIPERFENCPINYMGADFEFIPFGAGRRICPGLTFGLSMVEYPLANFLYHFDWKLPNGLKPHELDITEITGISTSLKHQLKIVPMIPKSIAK
Description: A cell free extract of chicory roots was prepared from the frozen material in the same way as described for isolation of the germacrene A hydroxylase (Example 1), but MgCl2 was not added to the extraction buffer since the accompanying (+)-germacrene A synthase activity was not essential for the detection of (+)-costunolide synthase activity. […] DTT was omitted from the assay buffer, because SH-groups present in DTT might undergo an “Michael-type addition” to the C11–C13 exocyclic double bond of (+)-costunolide Kupchan et al., 1970). […] Incubations were also done with boiled desalted supernatant and in the absence of NADPH. The experiments were repeated with elema-1,3,11(13)-trien-12-oic acid (FIG. 2, 9) and a mixture of α- and γ-costic acid (14) that might serve as substrate analogues for the germacrene acid (4). After 1 h of incubation at 30° C., the reactions were stored in the freezer.
as §2, with “(5). Mass spectra were recorded at 70 eV scanning from 35 to 300 atomic mass units; the GC oven temperature was programmed as described before (de Kraker et al., 1998).” for “(5).”
To determine whether the formation of (+)-costunolide (5) from germacrene acid (4) was catalysed by a cytochrome P450-enzyme, the effect of various established cytochrome P450-inhibitors (cytochrome C, metyrapone, clotrimazole, micozanole, and amino-benzotriazole) on this reaction were tested, as well as the effect of CO or an argon atmosphere. The cofactor dependence was also investigated, i.e. NAD(P)^+ or NADH was added instead of NADPH. Experiments were carried out in a similar manner as described for the germacrene A hydroxylase in Example I using a 20,000 g supernatant and 5 μL of 0.2 mM cis-nerolidol as internal standard. Blue-light reversal of CO-inhibition was investigated with gas-mixtures of 10% O2 plus 90% N2 (blank) and 10% O2 plus 90% CO.

[5] = tested on: (+)-germacrene A hydroxylase; assay: Effect of the used solvent for (+)-γ-gurjunene on enzyme activity; assay type: biochemical, Cichorium intybus L.; conditions: peak height of γ-gurjunene alcohol relative to the internal standard (5 nmol cis-nerolidol); 5 μL of 10 mM γ-gurjunene in the solvent
Description: Before experiments as described in this example were started, it was tested which organic solvent could be best used to dissolve the substrate. […] Karp et al., 1990).

[6] = tested on: NAD(P)+-dependent dehydrogenase(s); assay: Oxidation of alcohols by 150,000 g supernatant of chicory roots with NAD(P)+; assay type: biochemical, Cichorium intybus L.
Description: It was assumed that this β-nootkatol is an intermediate in the formation of nootkatone. For this reason incubations of 100 μM β-nootkatol were performed at pH 10 with NAD(P)^+and a 150,000 g supernatant of chicory roots, such as described for the conversion of (−)-elema-1,3,11(13)-12-ol and germacra-1(10),4,11(13)-trien-12-ol by NADP^+-dependent dehydrogenases by De Kraker et al. (2001). During incubation the added β-nootkatol was converted for more than 60% into nootkatone in the presence of either 1 mM NADP^+ or 1 mM NAD^+. In the absence of these cofactors conversion still amounted to 25%, whereas the boiled enzyme extract gave no conversion of β-nootkatol. At pH 7.5, enzyme activity was slightlylower, whereas a 150,000 g pellet, as expected, yielded 3-fold less dehydrogenase activity than the corresponding supernatant.
To get some more information about the substrate specificity of the dehydrogenase(s) present in chicory roots, incubations with the 150,000 g supernatant were also performed with 100 μM trans,trans-farnesol as substrate (FIG. 19) in the presence of either NAD^+ or NADP^+. Trans,trans-farnesol was converted up to 60% into a mixture of trans,trans-farnesal and cis,trans-farnesal, and small amounts of farnesoic acid were observed as well.

[7] = atmosphere: 80% CO + 20% O2 or argon, air = 100%
[8] = pyridine nucleotide cofactor 1 mM, substrate (+)-costunolide
[9] = inhibitor 10 μM, DMSO (1%) control = 100%
[10] = inhibitor 100 μM, control = 100%

## C=C(C)C1CC=C(C)CC1 (single isomer, unassigned; (+)) [(+)-limonene]
[1]
  Conversion by the (+)-germacrene A hydroxylase containing microsomal pellet (in words): Some conversion

## C=C(C)[C@H]1C/C=C(\C)CC/C=C(\C)CC1 [(+)-germacrene A]
[1]; microsomal pellet, pH 7.5, NADPH-regenerating system
  Subsequent oxidations into germacrene aldehyde and acid, share of the produced germacrene alcohol: approx. 15%

## C=C(C)[C@@H]1CC[C@@]2(C)CCCC(=C)[C@@H]2C1 [(+)-β-selinene]
[1]; 50 nmol added
  Share of the added substrate that was hydroxylated: Approximately 30%

## CC1=CC[C@@]23[C@@H]([C@@H]12)[C@H](C(C)C)CC[C@H]3C [(−)-(α)-Cubebene]
[1]
  Conversion by the (+)-germacrene A hydroxylase containing microsomal pellet (in words): not converted

## [C-]#[O+] [CO]
[2]
  Formation of leucodin from (+)-costunolide, effect of inhibitors (in words): strongly inhibited
[2]; [7]
  Percentage Enzyme Activity ± SD, Leucodin (22): 8 ± 1%
[3]; [7]
  Percentage Enzyme Activity ± SD, Dihydrocostunolide (20): 140 ± 4%
[4]; 90% CO + 10% O2, blue light 450 nm
  Effect on the produced sum of (+)-costunolide, 11(S),13-dihydrocostunolide and leucodin (in words): inhibitory effect

## C[S+](C)[O-] [DMSO]
[5]
  Enzyme activity ± SD: 1.80 ± 0.09

## NC(=O)C1=CN([C@@H]2O[C@H](COP(=O)(O)OP(=O)(O)OC[C@H]3O[C@@H](n4cnc5c(N)ncnc54)[C@H](O)[C@@H]3O)[C@@H](O)[C@H]2O)C=CC1 [NADH]
[2]; [8]
  Percentage Enzyme Activity ± SD, Leucodin (22): 0 ± 0%
[3]; [8]
  Percentage Enzyme Activity ± SD, Dihydrocostunolide (20): 14 ± 2%
[4]
  Percentage Enzyme Activity ± SD, (+)-costunolide synthase: 7 ± 2%

## NC(=O)C1=CN([C@@H]2O[C@H](COP(=O)(O)OP(=O)(O)OC[C@H]3O[C@@H](n4cnc5c(N)ncnc54)[C@H](OP(=O)(O)O)[C@@H]3O)[C@@H](O)[C@H]2O)C=CC1 [NADPH]
[2]; [8]
  Percentage Enzyme Activity ± SD, Leucodin (22): ^a100 ± 10 ^ %
[3]; [8]
  Percentage Enzyme Activity ± SD, Dihydrocostunolide (20): ^a100 ± 3 ^ %
[4]
  Percentage Enzyme Activity ± SD, (+)-costunolide synthase: 100 ± 8%

## CC(C)=CCC/C(C)=C/CC/C(C)=C/CO [Trans,trans-farnesol, trans,trans-farnesol]
[6]; 100 μM substrate, NAD+ or NADP+, 150,000 g supernatant
  Conversion into a mixture of trans,trans-farnesal and cis,trans-farnesal: up to 60%
[6]; pH 7.0, maximum at pH 10
  Conversion of farnesol into farnesal, share of maximum enzyme activity: 30%

## Nn1nnc2ccccc21 [aminobenzotriazole]
[2]; [9]
  Percentage Enzyme Activity ± SD, Leucodin (22): 86 ± 33%
[3]; [9]
  Percentage Enzyme Activity ± SD, Dihydrocostunolide (20): 75 ± 8%
[4]; inhibitor 100 μM
  Reduction of the amount of measurable enzymatic products of germacrene acid: 44%

## [Ar] [argon]
[2]; [7]
  Percentage Enzyme Activity ± SD, Leucodin (22): 0 ± 0%
[3]; [7]
  Percentage Enzyme Activity ± SD, Dihydrocostunolide (20): 134 ± 6%
[4]; 1 mM NADPH + argon atmosphere
  Percentage Enzyme Activity ± SD, (+)-costunolide synthase, argon atmosphere: 0 ± 0%

## Clc1ccccc1C(c1ccccc1)(c1ccccc1)n1ccnc1 [clotrimazole]
[2]; [9]
  Percentage Enzyme Activity ± SD, Leucodin (22): 0 ± 0%
[3]; [9]
  Percentage Enzyme Activity ± SD, Dihydrocostunolide (20): 119 ± 9%
[4]; inhibitor 100 μM
  Reduction of the amount of measurable enzymatic products of germacrene acid: 97%

## C=C1CC[C@H]2C(=C)CC[C@H]3C(=C)C(=O)O[C@@H]3[C@@H]12 [dehydrocostus lactone]
[3]
  Reduction of the C11–C13 exocyclic double bond (in words): not capable of doing the same
[3]; listed as dehydrocostuslacton
  Reduction of the C11–C13 exocyclic double bond (in words): not reduced

## C=CC1(C)CCC(C(=C)C(=O)O)CC1C(=C)C (stereo not shown) [elema-1,3,11(13)-trien-12-oic acid]
[4]
  Conversion of substrate analogues by the (+)-costunolide synthase (in words): no detectable conversion; also recorded: not capable of converting

## CCO [ethanol]
[5]
  Enzyme activity ± SD: 1.87 ± 0.01

## CC(C)=C1C/C=C(\C)CC/C=C(\C)CC1=O [germacrone]
[1]
  Conversion by the (+)-germacrene A hydroxylase containing microsomal pellet (in words): not converted; also recorded: not accepted as a substrate; also recorded: not hydroxylated

## CCCCCC [hexane]
[5]
  Enzyme activity ± SD: <0.1

## CC(C)O [iso-propanol]
[5]
  Enzyme activity ± SD: 1.76 ± 0.16

## C=C(C)[C@H]1CC=C(C)CC1 [limonene]
[1]
  Conversion by the (+)-germacrene A hydroxylase containing microsomal pellet (in words): hardly converted; also recorded: did hardly occur

## CC(C)(C(=O)c1cccnc1)c1cccnc1 [metyrapone]
[2]; [10]
  Percentage Enzyme Activity ± SD, Leucodin (22): 70 ± 16%
[3]; [10]
  Percentage Enzyme Activity ± SD, Dihydrocostunolide (20): 87 ± 11%
[4]; inhibitor 1 mM
  Reduction of the amount of measurable enzymatic products of germacrene acid: 78%

## Clc1ccc(COC(Cn2ccnc2)c2ccc(Cl)cc2Cl)c(Cl)c1 (stereo not shown) [miconazole]
[2]; [9]
  Percentage Enzyme Activity ± SD, Leucodin (22): 0 ± 0%
[3]; [9]
  Percentage Enzyme Activity ± SD, Dihydrocostunolide (20): 100 ± 5%
[4]; inhibitor 100 μM
  Reduction of the amount of measurable enzymatic products of germacrene acid: 71%

## C=C(C)[C@@H]1CC[C@@]2(C)CCC[C@](C)(O)[C@@H]2C1 [neointermedeol]
[1]
  Less efficiently hydroxylated than β-selinene: 15 fold

## CCCCC [pentane]
[5]
  Enzyme activity ± SD: 0.47 ± 0.07

## C=C(C(=O)O)[C@@H]1CC[C@@]2(C)CCC=C(C)[C@@H]2C1 [α-costic acid]
[4]
  Conversion of substrate analogues by the (+)-costunolide synthase (in words): not capable of converting

## C=C(C(=O)O)[C@@H]1CC[C@@]2(C)CCCC(C)=C2C1 [γ-costic acid]
[4]
  Conversion of substrate analogues by the (+)-costunolide synthase (in words): not converted either

## (−)-(α)-gurjunene
[1]
  Conversion by the (+)-germacrene A hydroxylase containing microsomal pellet (in words): not converted

## (−)-limonene
[1]
  Conversion by the (+)-germacrene A hydroxylase containing microsomal pellet (in words): Some conversion

## cytochrome C: established cytochrome P450 inhibitor
[2]; [10]
  Percentage Enzyme Activity ± SD, Leucodin (22): 0 ± 0%
[3]; [10]
  Percentage Enzyme Activity ± SD, Dihydrocostunolide (20): 105 ± 5%
[4]; inhibitor 100 μM
  Reduction of the amount of measurable enzymatic products of germacrene acid: no enzymatic products of germacrene acid (4) were measured
